Source: patent US20040152695A1, “Pharmaceutical composition of 1-(3-hydroxy-4-methoxyphenyl)-4-methyl-5-ethyl-7,8-dimethoxy-5H-2,3-benzodiazepine and uses thereof” (Vela Pharmaceuticals, Inc., priority 2002, published 2004)

Assays:
LTB4 receptor = biological target: T1, LTB4 receptor (Cavia porcellus, UniProt H0VYV8); assay: Inhibition of [3H]LTB4 binding, guinea pig spleen membrane assay; details: 10 μM test compound; for inhibition at 10 µM: 1 nM [3H]LTB4, read-out: LTB4 % inhib @ 10 μm; for LTB4 % inhib @ 10 μm: 1 nM [3H]LTB4
T1 construct: 1.0 mg/mL of the Guinea pig spleen membrane preparation; from tissue; host or cells: guinea pig spleen membranes
T1 sequence (H0VYV8 1-348): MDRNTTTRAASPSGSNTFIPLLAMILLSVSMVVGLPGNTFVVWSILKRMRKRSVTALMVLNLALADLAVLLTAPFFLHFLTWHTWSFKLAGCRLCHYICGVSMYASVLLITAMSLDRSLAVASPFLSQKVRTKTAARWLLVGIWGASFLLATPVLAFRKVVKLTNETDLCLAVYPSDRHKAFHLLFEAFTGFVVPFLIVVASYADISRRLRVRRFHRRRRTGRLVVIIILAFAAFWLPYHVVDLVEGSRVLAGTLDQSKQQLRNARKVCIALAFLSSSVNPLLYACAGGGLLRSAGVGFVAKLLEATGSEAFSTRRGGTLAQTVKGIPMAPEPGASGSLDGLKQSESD
Protocol: The ability of 1-(3-hydroxy-4-methoxyphenyl)-4-methyl-5-ethyl-7,8-dimethoxy-5H-2,3-benzodiazepine to inhibit [^3H]LTB4 binding to the LTB4 receptor was determined as follows using the guinea pig spleen membrane assay of Cheng et al., J. Pharmacol. Exp. Ther., 236(1), 126-132, 1986, the entire disclosure of which is incorporated herein by reference.
Reactions were carried out in a phosphate buffer (pH 7.4) containing NaCl, MgCl2, EDTA, and bacitracin. The reaction volume of 150 μL containing 1.0 mg/mL of the Guinea pig spleen membrane preparation and 1 nM [^3H]LTB4, with or without a candidate inhibitor, was incubated at 0-4° C. for 2 hours. Candidate inhibitors included the compounds listed in Table 1 and unlabeled LTB4 as a control. The reaction was terminated by rapid vacuum filtration onto glass fiber filters. The filter was washed with cold buffer, dried and placed in a scintillation vial. Radioactivity trapped onto the filters was determined and compared to control values in order to ascertain any interactions of the test compound with the LTB4 binding site.

aggression in mice = details: cited from earlier work
muricide in rats = details: cited from earlier work
[1] = system: anti-noradrenergic effects; details: cited from earlier work
narcosis in mice = details: cited from earlier work
TXA2 receptor [2] = biological target: T2, TXA2 receptor (Homo sapiens, UniProt P21731); assay: TXA2 binding assay ([3H]SQ 29,548), human platelet-based; details: human platelets
T2 construct: from tissue; host or cells: human platelets
T2 sequence (P21731 1-343): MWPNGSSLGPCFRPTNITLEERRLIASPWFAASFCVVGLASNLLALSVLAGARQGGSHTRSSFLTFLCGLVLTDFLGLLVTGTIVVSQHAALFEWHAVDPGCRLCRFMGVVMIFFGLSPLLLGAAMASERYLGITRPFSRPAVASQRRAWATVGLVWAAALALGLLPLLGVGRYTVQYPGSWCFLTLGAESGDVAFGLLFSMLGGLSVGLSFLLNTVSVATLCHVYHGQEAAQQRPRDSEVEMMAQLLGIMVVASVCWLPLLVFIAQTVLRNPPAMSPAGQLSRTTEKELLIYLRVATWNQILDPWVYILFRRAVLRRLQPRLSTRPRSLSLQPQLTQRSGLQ
Protocol: The ability of 1-(3-hydroxy-4-methoxyphenyl)-4-methyl-5-ethyl-7,8-dimethoxy-5H-2,3-benzodiazepine to inhibit the binding of [^3H]SQ 29,548 (30-60 Ci/mmol) was determined via the human platelet-based assay of Hedberg et al., “Characterization of [^3H]SQ 29,548 as a High Affinity Radioligand Binding to Thromboxane A2—Receptors in Human Platelets.”, J. Pharmacol. Exp. Ther. 245: 786-792 (1988), with modifications. TXA2 is a very unstable molecule, thus a surrogate ligand of known affinity for the TXA2 receptor is required as a standard for determination of binding affinity of new potential TXA2 ligands. [^3H]SQ 29,548 is a ligand with known binding affinity for the TXA2 receptor. [^3H]SQ 29,548 has been employed as a TXA2 ligand in several published studies, is accepted as a TXA2 binding standard, and is thus useful as a standard in assessing the binding affinity of new compounds to the TXA2 receptor. […]
Reactions were carried out in a reaction mixture comprising 25 mM TRIS-HCl (pH 7.4) containing 138 mM NaCl, 5 mM KCl, 5 mM MgCl2, 5.5 mM dextrose, and 2 mM EDTA at 25° C. for 60 minutes. […] Radioactivity trapped onto the filters was determined and compared to control values in order to ascertain any interactions of test compound with the thromboxane A2 binding site.

[3] = system: DSS-induced colitis in mice; assay: Dextran sulfate sodium induced colitis: mouse model of inflammatory bowel disease; assay type: in vivo; details: for % of normal length: colon length; for Mean DAIWT ± SEM: DAI without weight loss parameter; for Mean DAI ± SEM: mice
TXA2 receptor [4] = biological target: T2, TXA2 receptor; details: reference competitor in [3H]SQ 29,548 assay; cited from earlier work
central BZ receptors = details: cited from earlier work
peripheral BZ receptors = peripheral BZ receptors (Homo sapiens, UniProt P30536); details: cited from earlier work
Chain of peripheral BZ receptors (P30536 whole entry): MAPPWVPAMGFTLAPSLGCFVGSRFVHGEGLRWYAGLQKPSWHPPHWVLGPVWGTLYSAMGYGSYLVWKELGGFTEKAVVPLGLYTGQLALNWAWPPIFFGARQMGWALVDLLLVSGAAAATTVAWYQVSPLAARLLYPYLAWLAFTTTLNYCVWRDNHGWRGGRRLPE

CCC1C(C)=NN=C(c2ccc(O)c(OC)c2)c2cc(OC)c(OC)cc21 (stereo not drawn) [Compound 3, 1-(3-methoxy-4-hydroxyphenyl)-4-methyl-5-ethyl-7,8-dimethoxy-5H-2,3-benzodiazepine]
inhibition at 10 µM (LTB4 receptor): 16.8% | inhibition of aggression (aggression in mice): 0% | inhibition of muricide (muricide in rats): 0% | anti-noradrenergic effects [1]: measurable activity | narcosis-potentiating activity (narcosis in mice): demonstrate narcosis-potentiating activity

CCC1C(C)=NN=C(c2ccc(OC)c(O)c2)c2cc(OC)c(OC)cc21 (racemic) [Compound 4, 1-(3-hydroxy-4-methoxyphenyl)-4-methyl-5-ethyl-7,8-dimethoxy-5H-2,3-benzodiazepine]
inhibition at 10 µM (LTB4 receptor): 64% | inhibition at 10 µM (TXA2 receptor [2]): 25.9% | Mean colon length CM ± SEM ([3]; 16 mg/kg IP daily + DSS): 8.9 ± 0.40 CM | Mean weight (g) ± SEM Day 0 ([3]; 16 mg/kg IP daily + DSS): 24.6 ± 0.5 g | % weight change ± SEM Day 7 ([3]; 16 mg/kg IP daily + DSS): +0.5 ± 2.2% | Mean weight (g) ± SEM Day 7 ([3]; 16 mg/kg IP daily + DSS): 24.8 ± 0.8 g | % weight change ± SEM Day 8 ([3]; 16 mg/kg IP daily + DSS): −1.7 ± 3.0% | Mean weight (g) ± SEM Day 8 ([3]; 16 mg/kg IP daily + DSS): 24.3 ± 1.0 g | % weight change ± SEM Day 9 ([3]; 16 mg/kg IP daily + DSS): −7.5 ± 4.3% | Mean weight (g) ± SEM Day 9 ([3]; 16 mg/kg IP daily + DSS): 22.9 ± 1.4 g | % of normal length ([3]; 16 mg/kg IP daily + DSS): 70.2% | Colon shortening inhib. % ([3]; 16 mg/kg IP daily + DSS, listed as 1-(3-hydroxy-4-methoxy-phenyl)-4-methyl-5-ethyl-7,8-dimethoxy-5H-2,3-benzodiazep): significantly inhibited colonic shortening | Colon shortening inhib. % ([3]; 16 mg/kg IP daily + DSS, listed as 1-(3-hydroxy-4-methoxyphenyl)-4-methyl-5-ethyl-7,8-dimethoxy-5H-2,3-benzodiazepi): 32% | Colon shortening inhib. % ([3]; 32 mg/kg IP daily + DSS): 14% | Mean colon length CM ± SEM ([3]; 32 mg/kg IP daily + DSS): 7.9 ± 0.08 CM | Mean DAIWT ± SEM ([3]; 32 mg/kg IP daily + DSS): 2.56 ± 0.27 | Mean weight (g) ± SEM Day 0 ([3]; 32 mg/kg IP daily + DSS): 24.8 ± 0.2 g | % weight change ± SEM Day 7 ([3]; 32 mg/kg IP daily + DSS): −2.5 ± 1.7% | Mean weight (g) ± SEM Day 7 ([3]; 32 mg/kg IP daily + DSS): 24.1 ± 0.5 g | % weight change ± SEM Day 8 ([3]; 32 mg/kg IP daily + DSS): −9.1 ± 2.6% | Mean weight (g) ± SEM Day 8 ([3]; 32 mg/kg IP daily + DSS): 22.5 ± 0.7 g | % weight change ± SEM Day 9 ([3]; 32 mg/kg IP daily + DSS): −15.7 ± 4.1% | Mean weight (g) ± SEM Day 9 ([3]; 32 mg/kg IP daily + DSS): 20.9 ± 1.0 g | % of normal length ([3]; 32 mg/kg IP daily + DSS): 62.3% | Mean DAI ± SEM ([3]; 32 mg/kg IP daily + DSS): 2.67 ± 0.36 | Colon shortening inhib. % ([3]; 64 mg/kg IP daily + DSS): 37% | Mean colon length CM ± SEM ([3]; 64 mg/kg IP daily + DSS): 9.2 ± 0.33 CM | Mean DAIWT ± SEM ([3]; 64 mg/kg IP daily + DSS): 2.00 ± 0.45 | Mean weight (g) ± SEM Day 0 ([3]; 64 mg/kg IP daily + DSS): 23.7 ± 0.2 g | % weight change ± SEM Day 7 ([3]; 64 mg/kg IP daily + DSS): −2.7 ± 2.8% | Mean weight (g) ± SEM Day 7 ([3]; 64 mg/kg IP daily + DSS): 23.0 ± 0.6 g | % weight change ± SEM Day 8 ([3]; 64 mg/kg IP daily + DSS): −4.8 ± 4.3% | Mean weight (g) ± SEM Day 8 ([3]; 64 mg/kg IP daily + DSS): 22.5 ± 0.9 g | % weight change ± SEM Day 9 ([3]; 64 mg/kg IP daily + DSS): −9.7 ± 4.9% | Mean weight (g) ± SEM Day 9 ([3]; 64 mg/kg IP daily + DSS): 21.3 ± 1.1 g | % of normal length ([3]; 64 mg/kg IP daily + DSS): 72.5% | Mean DAI ± SEM ([3]; 64 mg/kg IP daily + DSS): 2.06 ± 0.48 | weight loss as compared to the negative controls ([3]; test compound groups (64, 32, 16 mg/kg) + DSS): no observed significant difference

Pinane-thromboxane
Ki (TXA2 receptor [4]): 0.149 µM

O=C(O)c1cc(/N=N/c2ccc(S(=O)(=O)Nc3ccccn3)cc2)ccc1O [Sulfasalazine, reference compound]
Colon shortening inhib. % ([3]; 300 mg/kg IP daily + DSS): 30% | Mean colon length CM ± SEM ([3]; 300 mg/kg IP daily + DSS): 8.8 ± 0.29 CM | Mean weight (g) ± SEM Day 0 ([3]; 300 mg/kg IP daily + DSS): 22.6 ± 0.2 g | % weight change ± SEM Day 7 ([3]; 300 mg/kg IP daily + DSS): −0.6 ± 0.5% | Mean weight (g) ± SEM Day 7 ([3]; 300 mg/kg IP daily + DSS): 22.4 ± 0.2 g | % weight change ± SEM Day 8 ([3]; 300 mg/kg IP daily + DSS): −11.4 ± 1.4% | Mean weight (g) ± SEM Day 8 ([3]; 300 mg/kg IP daily + DSS): 20.0 ± 0.4 g | % weight change ± SEM Day 9 ([3]; 300 mg/kg IP daily + DSS): −17.7 ± 1.8% | Mean weight (g) ± SEM Day 9 ([3]; 300 mg/kg IP daily + DSS): 18.6 ± 0.4 g | % of normal length ([3]; 300 mg/kg IP daily + DSS): 69.5% | weight loss as compared to the negative controls ([3]; 300 mg/kg daily + DSS): no observed significant difference

CCC1C(C)=NN=C(c2ccc(OC)c(O)c2)c2cc(OC)c(O)cc21 (stereo not drawn) [Compound 6, 1-(3-hydroxy-4-methoxyphenyl)-4-methyl-5-ethyl-7-hydroxy-8-methoxy-5H-2,3-benzodiazepine]
LTB4 % inhib @ 10 μm (LTB4 receptor): inactive

CCC1C(C)=NN=C(c2ccc(O)c(OC)c2)c2cc(OC)c(O)cc21 (stereo not drawn) [Compound 5, 1-(3-methoxy-4-hydroxyphenyl)-4-methyl-5-ethyl-7-hydroxy-8-methoxy-5H-2,3-benzodiazepine]
LTB4 % inhib @ 10 μm (LTB4 receptor): inactive | inhibition of aggression (aggression in mice): 28.6% | inhibition of muricide (muricide in rats): 20% | anti-noradrenergic effects [1]: measurable activity

CCC1C(C)=NN=C(c2ccc(OC)c(OC)c2)c2cc(OC)c(OC)cc21 (stereo not drawn) [tofisopam]
interaction with central BZ receptors (central BZ receptors): does not interact | binding to peripheral BZ receptors (peripheral BZ receptors): binds only weakly

CCC1C(C)=NN=C(c2ccc(OC)c(OC)c2)c2cc(OC)c(O)cc21 (stereo not drawn) [Compound 1, 1-(3,4-dimethoxyphenyl)-4-methyl-5-ethyl-7-hydroxy-8-methoxy-5H-2,3-benzodiazepine]
inhibition of aggression (aggression in mice): 0% | inhibition of muricide (muricide in rats): 20% | anti-noradrenergic effects [1]: no effect

CCC1C(C)=NN=C(c2ccc(OC)c(OC)c2)c2cc(O)c(OC)cc21 (stereo not drawn) [Compound 2, 1-(3,4-dimethoxyphenyl)-4-methyl-5-ethyl-7-methoxy-8-hydroxy-5H-2,3-benzodiazepine]
inhibition at 10 µM (LTB4 receptor): 36%
